≈ marks a conversion by molar mass, not a printed value.
Key:
NF-κB = test: Anti-inflammatory bioassay (Quanti-Blue assay), SEAP activity; type: cell-based, murine; conditions: Mus musculus, Macrophage; LPS-stimulated macrophages; read-out: IC50, inhibition of SEAP activity
Method: RAW-Blue cells (5×10^4) are cultured in 96-well plate for 24 hours, and then treated with LPS (1 μg/mL) alone or together with test samples for 20 hours. Secreted embryonic alkaline phosphatase (SEAP) activity in the conditioned medium is determined using QUANTI-Blue medium following manufacturer's manual. Briefly, 100 μL samples are added to 200 μL of QUANTI-Blue medium and incubated at 37° C. for 15 to 30 minutes. Absorbance is measured at 620 nm using a micro-plate reader (Benchmark plus Bio-Red, CA, USA) and fold change in SEAP activity is calculated accordingly.
Raw-Blue cells are derived from RAW264.7 macrophages. Then the murine macrophage cell line of Raw-Blue cells is cultured in plastic dishes containing DMEM supplemented with 100 U/mL of penicillin, 100 μg/mL of streptomycin and 10% FBS in an incubator (5% CO2) at 37° C. Cells are sub-cultured every 3 days at a dilution of 1:6.
The SEAP activity in the supernatants of LPS-stimulated RAW-Blue cells reflects the activation of NF-κB. The inhibition of the NF-κB activation can associate with mitigation of colon inflammation responses and apoptosis of intestinal epithelial cells in DSS mouse model. Western blotting and immunofluorescence analysis are performed to determine whether Pd-Ib depressed NF-κB activation. […]

DSS-induced colitis = test: Chronic DSS-induced colitis in mice (body weight, DAI, colon length, histology); type: in vivo, C57BL/6 mice
Description: 6-week-old male C57BL/6 mice weighing 18-20 g are purchased from the Laboratory Animal Services Center, the Chinese University of Hong Kong. The study protocols are approved by the committee for Care of Laboratory Animals in the School of Chinese Medicine at the Hong Kong Baptist University. The animals are divided into six groups (8-10 each group): control group (mice received drinking water and control diet), DSS-treated group (mice received 2.0% DSS in drinking and control diet), positive control group (mice received 2.0% DSS in drinking and ip, 300 mg/kg/day of sulfasalazine), Pd-Ib treatment groups will be given different dosed of Pd-Ib (mice received 2.0% DSS in drinking and i.p., 30, 60, or 120 mg/kg/day, respectively). As depicted in experiment design shown in FIG. 9, the mice are given tap water for 6 days, and then be divided into 6 groups. DSS is dissolved in distilled water at a concentration of 2% (w/v) and administered to the mice. The first day and the last day of DSS treatment are designated as day 7 and day 11, respectively. Mice are marked and checked daily for body weight. On day 12, body weight, stool consistency, and gross bleeding of each mouse are assessed, and animals showing body weight loss, diarrhea, and bleeding are selected for further analysis. All colitis mice are then interventions once daily for seven days, with eight mice in each group. The DSS model group is administered with tap water as negative control; while sulfasalazine is given as positive control (i.p., 300 mg/kg/day) and Pd-Ib treatment groups are given different doses of Pd-Ib (i.p., 30, 60, or 120 mg/kg/day, respectively). In parallel, a vehicle control group is also set up to receive drinking tap water without DSS throughout the entire experimental period. On day 19, after the mice are killed under anesthesia induced by pentobarbital sodium (i.p., 0.65 g/kg), the length of the large intestine is measured. All portions are stored at −80° C. for biochemical assays. The DAI is determined by scoring changes in the body weight, diarrhea, colon length, and bleeding. In brief, body weight, stool consistency, colon length and bleeding in the stool are monitored daily for determination of DAI. At the end of the experiment, mice are killed, and the colon is dissected from each mouse, and the length of which is measured from the ileocecal junction to the anal verge. The colons are opened longitudinally, gently washed with ice-cold PBS, fixed in 4% paraformaldehyde overnight, and embedded in paraffin. Five-micro-meter sections are stained with hematoxylin/eosin according to a standard procedure to evaluate colonic damage. Colitis is induced in all groups except the control group. Pd-Ib and sulfasalazine are administered to mice from day 6 to day 12. The change in body weight is taken as the difference between the body weight before induction of colitis and that immediately before sacrifice on day 13. The DAI score is determined by combining scores of (i) body weight loss, (ii) stool consistency, and (iii) stool bleeding. On day 13, the mice are sacrificed, and the colon lengths are measured. Data are expressed as mean±SEM, n=8 (^###p<0.001, compared with the control group; *p<0.05, **p<0.01, ***p<0.001, compared with DSS model group).

TNF-α = test: Real-time PCR of TNF-α mRNA in LPS-stimulated RAW-Blue cells; type: cell-based, murine; conditions: LPS 1 μg/mL, 5, 10, 20 μg/mL, 20 hours
Method: After macrophages are treated with 1 μg/mL of LPS in absence or presence various concentrations of Pd-Ib (5, 10, 20 μg/mL) for 20 hours, the mRNA levels of iNOS (A), TNF-α (B) and IL-1β (C) are determined by real time PCR, while the production of NO (D) is determined by Griess reagent. Data are derived from three independent experiments and presented as mean±SEM, “con” stands for the vehicle control group. ^#Compared with control group. *P<0.05, **P<0.01 and ***P<0.001 are compared with LPS-alone group.
Raw-Blue cells are plated at 20×10^5 cells/well in 12-well plate. After 24 hours of incubation, cells are pretreated with various concentrations (5-20 μg/mL) of Pd-Ib for 2 hours, followed by co-culturing with LPS (1 μg/mL) for 20 hours. Total RNA of Raw-Blue cells is extracted by Trizol reagent. Two micrograms (2 μg) of total RNA are reverse-transcribed with RT master mix to obtain cDNA. Real-time PCR is performed in a ViiA7 real-time PCR instrument (Applied Biosystems, Life Technologies, CA, USA) with the SYBR Green kit. A melting curve analysis is carried out after amplification to verify the accuracy of the amplicon. The comparative cycle of threshold (ΔΔCT) method of relative quantification is used to determine the fold-change in expression. Primer sequences for mRNA analysis of IL-1β, TNF-α, iNOS and β-Actin are described in Table 1.

C/C=C(\C)C(=O)OC1C(=O)c2c(ccc3ccc(=O)oc23)OC1(C)C (single isomer, unassigned; (+)) [Pd-Ib, (+)-3′-Angeloyloxy-4′-keto-3′,4′-dihydroseselin]
IC50 (NF-κB): 22.5 µg/mL (≈ 65.8 µM)
body weight loss (DSS-induced colitis; 30 mg/kg/day): mildly effective in preventing body weight loss
body weight loss (DSS-induced colitis; 60 mg/kg/day): mildly effective in preventing body weight loss
body weight loss (DSS-induced colitis; 120 mg/kg/day, compared with DSS model group after 10 days (p<0.05)): recover the body weight loss significantly
DAI score (DSS-induced colitis; 120 mg/kg/day, versus untreated mice (p<0.05)): significantly lower
shortening of colon length (DSS-induced colitis; 30, 60, 120 mg/kg/day (p<0.05, p<0.001)): rectified after administration with Pd-Ib at indicated concentration levels in a dose-dependent manner
histological manifestation of colon tissue sections (DSS-induced colitis; 30, 60, 120 mg/kg/day for seven days, compared with DSS group): far fewer infiltrating cells, a significantly lower degree of mucosal injury, and less edema
mRNA expression of TNF-α (TNF-α): inhibit the mRNA expressions of TNF-α and IL-1β in a dose-dependent manner
